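Exposure lasted 48 hours, with cells grown in 96-well plates and compounds tested at five concentrations. The concentration for 50% growth inhibition is given as GI50. TGI: concentration producing complete growth inhibition.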
Legend:
Test in all cases: growth of human tumour cells (NCI), 48 h
NCI-H460 lung = test system: NCI-H460 lung
HCT-116 colon = test system: HCT-116 colon
SK-MEL-5 melanoma = test system: SK-MEL-5 melanoma
SK-MEL-28 melanoma = test system: SK-MEL-28 melanoma
M14 melanoma = test system: M14 melanoma
LOX IMVI melanoma = test system: LOX IMVI melanoma
SK-OV-3 ovarian = test system: SK-OV-3 ovarian
HCT-15 colon = test system: HCT-15 colon
RXF 393 renal = test system: RXF 393 renal
SF-268 CNS = test system: SF-268 CNS
A549 NSCLC = test system: A549 NSCLC
OVCAR-8 ovarian = test system: OVCAR-8 ovarian
HL-60(TB) leukemia = test system: HL-60(TB) leukemia
786-0 renal = test system: 786-0 renal
CCRF-CEM leukemia = test system: CCRF-CEM leukemia
OVCAR-4 ovarian = test system: OVCAR-4 ovarian
DU-145 prostate = test system: DU-145 prostate
MDA-MB-231 breast = test system: MDA-MB-231 breast
SF-539 CNS = test system: SF-539 CNS
K-562 leukemia = test system: K-562 leukemia
SNB-19 CNS = test system: SNB-19 CNS
HS 578T breast = test system: HS 578T breast
CAKI-1 renal = test system: CAKI-1 renal
HT29 colon = test system: HT29 colon
MOLT-4 leukemia = test system: MOLT-4 leukemia
OVCAR-5 ovarian = test system: OVCAR-5 ovarian
SN12C renal = test system: SN12C renal
MALME-3M melanoma = test system: MALME-3M melanoma
U251 CNS = test system: U251 CNS
MCF7 breast = test system: MCF7 breast
BT-549 breast = test system: BT-549 breast
HOP-62 NSCLC = test system: HOP-62 NSCLC
UACC-62 melanoma = test system: UACC-62 melanoma
PC-3 prostate = test system: PC-3 prostate
SW-620 colon = test system: SW-620 colon
RPMI-8226 leukemia = test system: RPMI-8226 leukemia
SR leukemia = test system: SR leukemia
UACC-257 melanoma = test system: UACC-257 melanoma
SNB-75 CNS = test system: SNB-75 CNS
COLO 205 colon = test system: COLO 205 colon
UO-31 renal = test system: UO-31 renal
NCI/ADR-RES ovarian = test system: NCI/ADR-RES ovarian
NCI-H522 lung = test system: NCI-H522 lung
MDA-MB-435 = test system: MDA-MB-435
ACHN renal = test system: ACHN renal

## O=C1c2c(c3c4cc(Br)ccc4[nH]c3c3ccc4ccccc4c23)C(=O)N1CCN1CCCCC1
NCI-H460 lung
  GI50: 0.39 µM
  TGI: 1.52 µM
HCT-116 colon
  GI50: 1.2 µM
  TGI: 2.52 µM
SK-MEL-5 melanoma
  GI50: 1.77 µM
  TGI: 3.27 µM
SK-MEL-28 melanoma
  GI50: 1.77 µM
  TGI: 3.29 µM
M14 melanoma
  GI50: 1.36 µM
  TGI: 2.81 µM
LOX IMVI melanoma
  GI50: 1.18 µM
  TGI: 2.66 µM
SK-OV-3 ovarian
  GI50: 2.66 µM
  TGI: > 100 µM
HCT-15 colon
  GI50: 1.54 µM
  TGI: 3.52 µM
RXF 393 renal
  GI50: 1.48 µM
  TGI: 2.93 µM
SF-268 CNS
  GI50: 1.44 µM
  TGI: 4.08 µM
A549 NSCLC
  GI50: 1.38 µM
  TGI: 2.74 µM
OVCAR-8 ovarian
  GI50: 1.21 µM
  TGI: 2.59 µM
HL-60(TB) leukemia
  GI50: 1.44 µM
  TGI: 6.1 µM
786-0 renal
  GI50: 1.68 µM
  TGI: 3.1 µM
CCRF-CEM leukemia
  GI50: 0.331 µM
  TGI: 2.18 µM
OVCAR-4 ovarian
  GI50: 1.8 µM
  TGI: 3.68 µM
DU-145 prostate
  GI50: 1.1 µM
  TGI: 2.48 µM
MDA-MB-231 breast
  GI50: 1.57 µM
  TGI: 3.22 µM
SF-539 CNS
  GI50: 1.57 µM
  TGI: 3.08 µM
K-562 leukemia
  GI50: 0.912 µM
  TGI: 3.3 µM
SNB-19 CNS
  GI50: 1.72 µM
  TGI: > 100 µM
HS 578T breast
  GI50: 2.04 µM
  TGI: 4.89 µM
CAKI-1 renal
  GI50: 1.29 µM
  TGI: 2.79 µM
HT29 colon
  GI50: 1.23 µM
  TGI: 2.56 µM
MOLT-4 leukemia
  GI50: 0.314 µM
  TGI: 2.53 µM
OVCAR-5 ovarian
  GI50: 1.85 µM
  TGI: 3.39 µM
SN12C renal
  GI50: 1.44 µM
  TGI: 3.16 µM
MALME-3M melanoma
  GI50: 1.62 µM
  TGI: 3.11 µM
U251 CNS
  GI50: 0.884 µM
  TGI: 2.13 µM
MCF7 breast
  GI50: 0.178 µM
  TGI: 1.77 µM
BT-549 breast
  GI50: 9.5 µM
  TGI: > 100 µM
HOP-62 NSCLC
  GI50: 0.689 µM
  TGI: 2.03 µM
UACC-62 melanoma
  GI50: 1.97 µM
  TGI: 7.3 µM
PC-3 prostate
  GI50: 1.47 µM
  TGI: 2.93 µM
SW-620 colon
  GI50: 1.04 µM
  TGI: 2.39 µM
RPMI-8226 leukemia
  GI50: 1.63 µM
  TGI: 3.94 µM
SR leukemia
  GI50: 0.1 µM
  TGI: 1.84 µM
UACC-257 melanoma
  GI50: 1.69 µM
  TGI: 3.2 µM
SNB-75 CNS
  GI50: 1.52 µM
  TGI: 3.44 µM
COLO 205 colon
  GI50: 1.43 µM
  TGI: 3.15 µM
UO-31 renal
  GI50: 1.5 µM
  TGI: 3 µM
NCI/ADR-RES ovarian
  GI50: 1.28 µM
  TGI: 3.34 µM
NCI-H522 lung
  GI50: 1.23 µM
  TGI: 2.69 µM
MDA-MB-435
  GI50: 1.61 µM
  TGI: 3.11 µM
ACHN renal
  GI50: 0.783 µM
  TGI: 2.03 µM

From PubChem BioAssay (NCI)
